{"source": "patent US6656912B2", "about": "“Methods to treat α1-antitrypsin deficiency” (Washington University in St. Louis, priority 2000, dated 2003)", "key": {"[1]": {"tested_on": "α1-ATZ mutant antitrypsin produced by human fibroblast cell line CJZ12B", "assay": "Electrophoretic mobility of immunoprecipitated α1-ATZ from drug-treated, 35S-labeled cells (SDS-PAGE)", "format": "cell-based", "details": "for migration of precipitated α1-ATZ / estimated molecular weight of the protein from treated cultures: 100 μg/ml CST or 3 mM MDNJ; for migration of precipitated α1-ATZ: 1 hour preincubation, 1.5 hours label, vs control medium; for estimated molecular weight of the protein from treated cultures: untreated form 52 kD; for migration of α1-ATZ compared to the 52 kD trimmed form: mannosidase inhibitors, tested as in Example 1", "excerpt": "(§1) The human fibroblast cell line CJZ12B which has been transduced with anthotropic recombinant retroviral particles to result in stable production of α1-ATZ mutant antitrypsin (Gross, V., et al., Biochem. J. (1986) supra) is used to produce α1-ATZ. The α1-ATZ mutant produced is labeled by adding 350-400 μCi TRAN^35S label to the medium.\nIt has previously been shown that α1-ATZ mutant migrates at 52 kD in electrophoretic studies. It is believed this form is an intermediate with high mannose-type oligosaccharide side chains (Wu, Y., et al., PNAS (1994) supra). The α1-ATZ producing cell line of Preparation A was incubated for 1 hour in control serum-free medium or in serum-free medium supplemented with 100 μg/ml CST or 3 mM MDNJ. The cells were then labeled with TRAN^35S for 1.5 hours maintaining the presence of the drugs. The antitrypsin fraction was immunoprecipitated from the cell lysates, resolved by 10% SDS-PAGE and detected with the Phosphorimager system. […] The estimated molecular weight of the protein from treated cultures is 55 kD.\nThe effect of the mannosidase inhibitors KIF (mannosidase I), DMJ (mannosidase I and II) and an additional inhibitor, DIM (mannosidase II) on electrophoretic mobility was tested as described in Example 1."}, "[2]": {"tested_on": "α1-ATZ mutant antitrypsin produced by human fibroblast cell line CJZ12B", "assay": "Pulse-chase: disappearance of α1-ATZ from cell lysate and secretion into medium", "format": "cell-based", "details": "for disappearance of α1-ATZ from the cell lysate vs control / secretion of the 55 kD α1-ATZ into the medium: glucosidase inhibitors, pulse-chase in presence of drug; for effect on amount of secreted α1-ATZ / effect on degradation / intracellular retention of α1-ATZ / molecular weight of intracellular and secreted protein / fraction of α1-ATZ secreted: DMJ 1 mM, KIF 0.3 mM; for effect on amount of secreted α1-ATZ / effect on degradation / intracellular retention of α1-ATZ: DIM 1 mM, vs control; for fraction of α1-ATZ secreted: control 0.11", "method": "as §1\nThe procedure of Example 1 was repeated except that after the incubation with label, the cells producing α1-ATZ were “chased” for various time intervals still in the presence of drug. At these time intervals, extracellular fluid and cell lysates were clarified, immunoprecipitated and analyzed by 8-10% SDS PAGE as previously described. (Wu, Y., et al., PNAS (1994) supra).\nThe pulse-chase experiments of Example 2 were repeated with the mannosidase inhibitors DMJ (1 mM) KIF (0.3 mM) and DIM (1 mM). In the presence of DMJ or KIF, the intracellular and secreted protein both have molecular weights of 52 kD. […] The half-life for disappearance of α1-ATZ from the lysate in the control is 0.95 hours and the fraction secreted is 0.11. […] (Control values were slightly different in this latter experiment.) There was no effect of DIM on degradation or secretion."}, "α1-ATZ": {"tested_on": "α1-ATZ", "assay": "Cell-free ER degradation of α1-ATZ (reticulocyte lysate with canine pancreatic microsomes)", "format": "biochemical", "method": "This system was described by Qu, D., et al., J. Biol. Chem. (1996) 271:22791-22795 cited above. In general, reticulocyte lysate cell free system supplemented with canine pancreatic microsomes was programmed with purified α1-ATZ mRNA over 60 minutes at 30° C. The microsomes were then isolated by centrifugation and incubated in a proteolysis-primed lysate at 37° for various time intervals. Aliquots were taken and the samples resolved on 10% SDS-PAGE gels.\nTo test the effect of drug, the reaction mixture was pre-incubated for 10 minutes at 30° C. in the absence of CST or in the presence of 100 μg/ml CST. α1-ATZ mRNA and ^35S-labeled methionine were added and translation conducted for 60 minutes at 30° C. in the absence or presence of CST. After co-translational translocation of α1-ATZ into the microsomes, the microsomes were harvested by centrifugation and the pellets suspended in […] of proteolysis-primed lysate with or without CST. The samples were incubated at 37° C. and aliquots analyzed at various time intervals."}, "[3]": {"tested_on": "α1-ATZ complexes with calnexin and GRP78/BiP", "assay": "Co-immunoprecipitation of α1-ATZ with chaperones from microsomes", "format": "biochemical", "method": "The procedure was repeated with 100 μg/ml CST present throughout and the microsomes were homogenized under nondenaturing conditions and immunoprecipitated with antibodies to calnexin and to a different chaperone, GRP78/BiP. The 52 kD form in the control was precipitated by anti-calnexin but the complex disappears between 30-45 minutes of the chase period. […] On the other hand, the 55 kD protein characteristic of the sample which includes CST is precipitated by anti-GRP78/BiP. This complex, too, disappears rapidly."}, "[4]": {"tested_on": "α1-ATZ secreted by CJZ12B cells", "assay": "endoH / PNGaseF digestion of α1-ATZ secreted by treated CJZ12B cells", "format": "cell-based, human", "details": "product of drug-treated CJZ12B cells", "excerpt": "Wild type α1-AT is secreted from HepG2 cells with a molecular weight of 55 kD. It is resistant to digestion with endoH but is cleaved to a 46 kD polypeptide by PNGaseF.\nEndoH is glycolytic only for high mannose […] carbohydrate glycosylation chains; PNGaseF cleaves any carbohydrate and would be expected to degrade the glycosylation side chains of any glycoprotein.\nThis 55 kD α1-ATZ polypeptide was cleaved to 46 kD by PNGaseF.\nThe peptide secreted by KIF treated CJZ12B cells was cleaved both by endoH and PNGaseF to a 46 kD product."}, "neutrophil elastase": {"tested_on": "neutrophil elastase", "assay": "Complex formation of secreted α1-ATZ with neutrophil elastase", "format": "cell-based", "details": "medium at 6 hours of chase, KIF (0.3 mM), DMJ (1 nM) or CST (100 μg/ml); for amount of elastase at which complexes start to form / amount of elastase for complete conversion to complexes: 30 minutes at 37°", "method": "Both HepG2 cells, secreting wild type antitrypsin, and CJZ12B cells, which secrete the mutant, were subjected to pulse-chase conditions as described, for example, in Example 2. The mutant-secreting cells were treated with KIF (0.3 mM) DMJ (1 nM) or CST (100 μg/ml). The extracellular media from the 6 hours time point of the chase period were harvested and then incubated for 30 minutes at 37° with neutrophil elastase at various concentrations. The reaction mixtures were then immunoprecipitated with anti-antitrypsin and resolved by SDS PAGE."}, "[5]": {"details": "100 μg/ml CST present throughout"}}, "note": "Where a SMILES comes first, the peptide text is derived from it. The star is where a group is joined. Cbz = O=C(OCc1ccccc1)*", "data": [{"smiles": "O[C@H]1[C@H](O)[C@@H](O)CN2CC[C@H](O)[C@H]12", "note": "[CST, castanospermine]", "values": [{"measurement": "migration of precipitated α1-ATZ", "setting": "[1]", "value": "migrates more slowly"}, {"measurement": "estimated molecular weight of the protein from treated cultures", "setting": "[1]", "value": 55, "unit": "kD"}, {"measurement": "newly synthesized 55 kD protein secreted into the medium", "setting": "[2]; 100 μg/ml CST, by 6 hours of chase, untreated control 17%", "value": 31, "unit": "%"}, {"measurement": "time at which 55 kD protein disappears from the cell lysate", "setting": "[2]; 100 μg/ml CST, chase", "value": "2 to 4", "unit": "h"}, {"measurement": "disappearance of α1-ATZ from the cell lysate vs control", "setting": "[2]", "value": "same rate"}, {"measurement": "secretion of the 55 kD α1-ATZ into the medium", "setting": "[2]", "value": "increase"}, {"measurement": "time at which the 55 kD form begins to disappear", "setting": "α1-ATZ; 100 μg/ml CST from pre-incubation on, 37° C., control 15-30 minutes", "value": "> 30", "unit": "min"}, {"measurement": "time at which disappearance is complete", "setting": "α1-ATZ; 100 μg/ml CST from pre-incubation on, 37° C., control 30-45 minutes", "value": "45 to 90", "unit": "min"}, {"measurement": "disappearance rate of the 52 kD form", "setting": "α1-ATZ; CST added only during the chase period", "value": "same disappearance rate as the control"}, {"measurement": "precipitation of 55 kD α1-ATZ by anti-GRP78/BiP", "setting": "[3]; [5]", "value": "precipitated"}, {"measurement": "precipitation of α1-ATZ by anti-calnexin", "setting": "[3]; [5]", "value": "Little if any precipitate"}, {"measurement": "total α1-ATZ co-precipitated with the anti-GRP78/BiP antibody", "setting": "[3]; CST present, estimated", "value": "5-10%"}, {"measurement": "molecular weight of product after PNGaseF cleavage", "setting": "[4]", "value": 46, "unit": "kD"}, {"measurement": "molecular weight of product(s) after endoH treatment", "setting": "[4]", "value": "46 kD, 48 kD, and 52 kD"}, {"measurement": "sensitivity of secreted α1-ATZ to endoH", "setting": "[4]", "value": "partial sensitivity"}, {"measurement": "molecular weight of α1-ATZ-elastase complexes", "setting": "neutrophil elastase", "value": 75, "unit": "kD"}, {"measurement": "amount of elastase at which complexes start to form", "setting": "neutrophil elastase", "value": 0.5, "unit": "µg"}, {"measurement": "amount of elastase for complete conversion to complexes", "setting": "neutrophil elastase", "value": 2, "unit": "µg"}]}, {"smiles": "OC[C@@H](O)[C@@H]1NC[C@@H](O)[C@H]1O", "note": "[DIM]", "values": [{"measurement": "effect on amount of secreted α1-ATZ", "setting": "[2]", "value": "no effect"}, {"measurement": "effect on degradation / intracellular retention of α1-ATZ", "setting": "[2]", "value": "no effect"}]}, {"smiles": "OC[C@H]1NC[C@@H](O)[C@@H](O)[C@@H]1O", "note": "[DMJ, deoxymannojirimycin]", "values": [{"measurement": "migration of α1-ATZ compared to the 52 kD trimmed form", "setting": "[1]", "value": "somewhat slower migration"}, {"measurement": "molecular weight of intracellular and secreted protein", "setting": "[2]", "value": 52, "unit": "kD"}, {"measurement": "effect on amount of secreted α1-ATZ", "setting": "[2]", "value": "increase"}, {"measurement": "effect on degradation / intracellular retention of α1-ATZ", "setting": "[2]", "value": "retained intracellularly for a longer period of time"}, {"measurement": "fraction of α1-ATZ secreted", "setting": "[2]", "value": 0.28}, {"measurement": "molecular weight of α1-ATZ-elastase complexes", "setting": "neutrophil elastase", "value": 70, "unit": "kD"}, {"measurement": "amount of elastase at which complexes start to form", "setting": "neutrophil elastase", "value": 0.5, "unit": "µg"}, {"measurement": "amount of elastase for complete conversion to complexes", "setting": "neutrophil elastase", "value": 2, "unit": "µg"}]}, {"smiles": "O=C1N[C@@H]2[C@@H](O)[C@@H](O)[C@H](O)[C@@H](CO)N2C1=O", "note": "[KIF, kifunensine]", "values": [{"measurement": "migration of α1-ATZ compared to the 52 kD trimmed form", "setting": "[1]", "value": "somewhat slower migration"}, {"measurement": "molecular weight of intracellular and secreted protein", "setting": "[2]", "value": 52, "unit": "kD"}, {"measurement": "effect on amount of secreted α1-ATZ", "setting": "[2]", "value": "increase"}, {"measurement": "effect on degradation / intracellular retention of α1-ATZ", "setting": "[2]", "value": "retained intracellularly for a longer period of time"}, {"measurement": "fraction of α1-ATZ secreted", "setting": "[2]", "value": 0.31}, {"measurement": "molecular weight of product after PNGaseF cleavage", "setting": "[4]", "value": 46, "unit": "kD"}, {"measurement": "molecular weight of product(s) after endoH treatment", "setting": "[4]", "value": 46, "unit": "kD"}, {"measurement": "sensitivity of secreted α1-ATZ to endoH", "setting": "[4]", "value": "cleaved"}, {"measurement": "molecular weight of α1-ATZ-elastase complexes", "setting": "neutrophil elastase", "value": 70, "unit": "kD"}, {"measurement": "amount of elastase at which complexes start to form", "setting": "neutrophil elastase", "value": 0.5, "unit": "µg"}, {"measurement": "amount of elastase for complete conversion to complexes", "setting": "neutrophil elastase", "value": 2, "unit": "µg"}]}, {"smiles": "CN1C[C@H](O)[C@@H](O)[C@H](O)[C@H]1CO", "note": "[MDNJ, N-methyldeoxynojirimycin]", "values": [{"measurement": "migration of precipitated α1-ATZ", "setting": "[1]", "value": "migrates more slowly"}, {"measurement": "estimated molecular weight of the protein from treated cultures", "setting": "[1]", "value": 55, "unit": "kD"}, {"measurement": "disappearance of α1-ATZ from the cell lysate vs control", "setting": "[2]", "value": "accelerated over control"}, {"measurement": "secretion of the 55 kD α1-ATZ into the medium", "setting": "[2]", "value": "no secretion"}]}, {"smiles": "CC(C)C[C@@H](C=O)NC(=O)[C@H](CC(C)C)NC(=O)[C@H](CC(C)C)NC(=O)OCc1ccccc1", "note": "[MG132] (Cbz-Leu-Leu-Leu-aldehyde)", "values": [{"measurement": "effect on alternate degradation pathway of untrimmed α1-ATZ", "setting": "α1-ATZ; CST present", "value": "inhibited"}]}]}
